According to publication PMC8351946, “Mle046 Is a Marine Mesophilic MHETase-Like Enzyme” (Frontiers in Microbiology, 2021):

System: T1, Mle046
T1 construct: signal peptide (first 27 residues) removed; His-tagged (pColdII), tag kept; codon-optimised gene, E. coli Shuffle T7; theoretical 62 kD
Assay: HPLC ([…] nm), MHET degradation rate, non-linear Michaelis-Menten fit
Format: biochemical, metagenome: marine microbial consortium
Settings: 40 mM sodium phosphate pH 7.5, 30°C; rate declines at 2,700 μM MHET (fit up to 2,230 μM)

## O=C(O)c1ccc(C(=O)OCCO)cc1 [MHET]
  Km: 2640 µM
